Assays:
[1] = test system: mice (FeCl3 induced femoral artery thrombosis); assay: FeCl3 arterial thrombosis mouse model (occlusion time, blood flow); format: in vivo
Procedure: The solutions were diluted 3.3-fold in saline and 100 μl/25 g was injected.
During the experiments, a soluble potassium salt of the drug was provided, diluted in saline. Of this formulation, 100 μl/25 g was injected i.v. in the tail vein (dose of 100 mg/kg).
Aspirin is given the same way at a dose of 200 mg/kg. Clopidogrel is administered by oral gavage at a dose of 20 mg/kg at 6-7 hours prior to the experiment. The solutions were coded (except for clopidogrel) and the operator was blinded to the code. The animals assigned to each group were matched for body weight. All mice used were 8-10 weeks old males and were in a 100% Swiss genetic background.
(§1) The flow in each image is expressed as a percentage of that at the contralateral side, and data are averaged for all 120 images to determine total flow. The same analysis is performed for 10 min intervals (which gives essentially the same information as the area under the curve). […] Flow before treatment is recorded as 100%, and that in occluded arteries as 0%. At the end of the experiment, blood is collected on 0.01M citrate by heart puncture for determination of blood cell counts. Plasma is prepared by centrifugation and stored at −20° C. for determination of drug levels.
Statistical analysis for differences between two groups is performed by non-parametric Student t-test. Occlusion times >30 min were considered equal to 30 min for statistical analysis. It should be noted that this approach may result in a statistical bias, the more so because the number of experiments is not the same in the different groups. Significance is set at p<0.05.

[2] = Blood cell analysis at end of thrombosis experiment; format: in vivo, mouse
Procedure: as §1
Table VI summarizes the results of blood cell analysis performed on a sample taken at the end of the observation period. (Z)-6-((2S,4S,5R)-2-(2-chlorophenyl)-4-(2-hydroxyphenyl)-1,3-dioxan-5-yl)hex-4-enoic is referred to in Table VI as EV.

MEFs / 3T3-L1 = assay: Adipocyte differentiation induction assay (Oil Red O staining); format: cell-based, mouse; set-up: key to Adip. (adipocyte differentiation): 0: similar results to DPD; −1: even less adipocyte differentiation; +1: more adipocyte differentiation (both relative to DPD); conditions: for Adip. (adipocyte differentiation): relative to DPD (SN1)
Procedure: This example describes an assay for determining adipocyte differention. Compounds are tested to see whether they induce adipocyte differentiation and also to see whether they inhibit adipocyte differention.
MEFs were grown in AmnioMax basal medium (Gibco) supplemented with 7.5% Amniomax supplement C-100 (Gibco), 7.5% Fetal Bovine Serum (FBS), 2 mM Glutamine, 62.5 μg/ml penicillin and 100 μg/ml Streptomycin (growth medium). At confluence, MEFs were induced to differentiation in growth medium with the addition of 1 μM dexamethasone (Sigma) 0.5 mM isobutylmethylxanthine (Sigma), 5 μg/ml insulin (Sigma) and 10 μM test compound dissolved in DMSO or DMSO alone. Medium was subsequently renewed every 48 hrs with growth media supplemented with 5 μg/ml Insulin and ligand or DMSO.
Briefly, to test compounds as inducers of adipocyte differentiation, 3T3-L1 are grown to confluence in DMEM with 10% Calf serum (CS), typically in 24 well dishes. At 2 days post confluence (day 0), cells are induced to differentiate with DMEM supplemented with 10% fetal bovine serum (FBS), 1 μM dexamethasone and the test compound (01, 1 and 10 μM). BRL49653 (1.0 μM dissolved in 100% DMSO) is used as a positive control. After 48 h, the cells are re-fed with DMEM containing 10% FBS supplemented with the test compound or the positive control. From day 4, cells are grown in DMEM with 10% FBS and are changed every second day until day 8. At day 8, cells are stained with Oil Red O as described below.
Cells cultured as described above are used for Oil Red staining. Dishes are washed in PBS and cells were fixed in 3.7% paraformaldehyde for 1 h and stained with oil red O as described in (Hansen et al 1999). Oil red O solution stock solution is prepared by dissolving 0.5 g of Oil Red O (Sigma) in 100 mL of isopropanol. Oil re 0 working solution is prepared by diluting a stock solution with water (6:4) followed by filtration.
Table II summarizes results obtained with different analogs of DPD (SN1), “0” representing similar results to DPD, “−1” representing even less adipocyte differentiation, “+1” representing more adipocyte differentiation (both relative to DPD) and “−” meaning not assayed.

Gal4-PPARgammaLBD = molecular target: T1, Gal4-PPARgammaLBD (Homo sapiens, UniProt P37231); assay: PPARgamma transactivation assay (Gal4-PPARgammaLBD, UASx4-TK-luc reporter); format: cell-based; conditions: for PPAR (PPARgamma activating activity): level of activity relative to 10 μM DPD (SN1)
T1 construct: expressed in transfected cells; host or cells: mouse embryonic fibroblasts (MEFs) or ME3 cells
T1 sequence (P37231 204-505): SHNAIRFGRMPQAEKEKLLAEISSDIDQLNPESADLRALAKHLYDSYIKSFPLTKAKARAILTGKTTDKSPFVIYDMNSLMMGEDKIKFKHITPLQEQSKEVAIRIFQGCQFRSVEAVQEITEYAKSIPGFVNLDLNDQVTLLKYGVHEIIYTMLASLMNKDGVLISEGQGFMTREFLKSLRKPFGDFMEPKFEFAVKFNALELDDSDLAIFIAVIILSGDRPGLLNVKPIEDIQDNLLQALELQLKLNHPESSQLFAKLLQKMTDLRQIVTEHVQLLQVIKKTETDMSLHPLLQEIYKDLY
Source text: This is an example of a transactivation assay for determining PPAR gamma modulating activity.
The UASx-4-TK-luc reporter construct (where UAS refers to “upstream activator sequence”) contains four Gal4-responsive elements. The plasmid Gal4-PPARgammaLBD encodes a Gal4-DBD-PPARgamma-LBD fusion protein (i.e. the DNA-binding domain, DBD, of Gal4 fused to the ligand-binding domain, LBD, of PPARgamma) capable of transactivating the UASx-4-TK-luc reporter plasmid by binding to the UAS. The CMV-beta-galactosidase plasmid (where CMV is cytomegalovirus) is used for normalization of experimental values.
The cells were replated, typically in 24 well plates, so that at the time of transfection the cells are 50-70% confluent.
Briefly, per well in a 24 well plate, UASx4TKIuc (0.2 μg) Gal4-PPARgammaLBD (or pM-hPPARgamma-LBD; 0.1 μg) and CMV-beta-galactosidase (0.05 μg) in 30 μL DMEM (free of serum and antibiotics) is mixed with 30 μL DMEM (free of serum and antibiotics) containing 1 μL metafectenein. The mixture is incubated at room temperature for 20 min to allow formation of nucleic acid-lipid complexes and then approximately 60 μL is added to each well containing the 50-60% confluent cells. […] Cells were harvested after 12-24 hours and luciferase and beta-galactosidase activities were measured according to standard protocols.
“−” means that testing was not performed.

[3] = Aspirin 200 mg/kg i.v., n = 7, mean ± SEM
[4] = Clopidogrel 20 mg/kg oral gavage, n = 6, mean ± SEM

O=C([O-])CC/C=C\C[C@@H]1CO[C@H](c2ccccc2Cl)O[C@@H]1c1ccccc1O.[K+] [(Z)-6-((2S,4S,5R)-2-(2-chlorophenyl)-4-(2-hydroxyphenyl)-1,3-dioxan-5-yl(hex-4-enoic potassium]
blood flow, time window 0-10 min ([1]; 100 mg/kg in saline i.v.): significantly higher blood flow as compared to either saline alone (p=0.009) or to aspirin (p=0.0006) | occlusion time ([1]; 100 mg/kg in saline i.v.): prolonged the occlusion time | total blood flow ([1]; 100 mg/kg in saline i.v.): significantly improved total blood flow as compared to either saline (p=0.0032) or aspirin (p=0.0021)

CC(=O)Oc1ccccc1C(=O)O [Aspirin, reference compound]
occlusion time ([1]; 200 mg/kg i.v. in the tail vein): no effect | total blood flow ([1]; 200 mg/kg i.v., versus vehicle): no significant effect | Hematocrit [2, 3]: 72 ± 0.60% | Hemoglobin [2, 3]: 15 ± 0.19 g/dL | Lymphocytes [2, 3]: 60 ± 11% | Neutrophils [2, 3]: 39 ± 11% | Platelets [2, 3]: 1020 ± 59 ×10^3/μl | Red blood cells [2, 3]: 9.3 ± 0.10 ×10^6/μl | White blood cells [2, 3]: 1.4 ± 0.42 ×10^3/μl

COC(=O)[C@H](c1ccccc1Cl)N1CCc2sccc2C1 [Clopidogrel, reference compound]
occlusion ([1]; 20 mg/kg oral gavage 6-7 hours prior to the experiment, 30 min observation): totally prevents occlusion within 30 min in 6/7 experiments | total blood flow ([1]; 20 mg/kg oral gavage, versus vehicle): significantly improved total blood flow | Hematocrit [2, 4]: 72 ± 2.7% | Hemoglobin [2, 4]: 15 ± 0.60 g/dL | Lymphocytes [2, 4]: 47 ± 7.8% | Neutrophils [2, 4]: 50 ± 7.2% | Platelets [2, 4]: 1060 ± 106 ×10^3/μl | Red blood cells [2, 4]: 9.0 ± 0.36 ×10^6/μl | White blood cells [2, 4]: 0.62 ± 0.22 ×10^3/μl

COc1ccccc1[C@@H]1O[C@H](c2ccccc2Cl)OC[C@@H]1C/C=C\CCC(=O)O [Compound 4, (Z)-6-((2R,4R,5S)-2-(2-chlorophenyl)-4-(2-methoxyphenyl)-1,3-dioxan-5-yl)hex-4-enoic acid]
Adip. (adipocyte differentiation) (MEFs / 3T3-L1): 0

COc1ccccc1[C@H]1O[C@@H](c2ccccc2Cl)OC[C@H]1C/C=C\CCC(=O)O [Compound 5, (Z)-6-((2S,4S,5R)-2-(2-chlorophenyl)-4-(2-methoxyphenyl)-1,3-dioxan-5-yl)hex-4-enoic acid]
Adip. (adipocyte differentiation) (MEFs / 3T3-L1): 0

O=C(O)CC/C=C\C[C@@H]1CO[C@H](c2ccccc2Cl)O[C@@H]1c1ccccc1O [compound 1]
Adip. (adipocyte differentiation) (MEFs / 3T3-L1): 0

O=C(O)CC/C=C\C[C@@H]1COC(c2cccc(Cl)c2Cl)O[C@@H]1c1ccccc1O (stereo partly drawn) [compound 2]
Adip. (adipocyte differentiation) (MEFs / 3T3-L1): 0

O=C(O)CC/C=C\C[C@@H]1COC2(CCCCC2)O[C@@H]1c1ccccc1O [compound 6]
Adip. (adipocyte differentiation) (MEFs / 3T3-L1): 0

COc1ccc(Oc2ccccc2C2OC[C@@H](C/C=C\CCC(=O)O)[C@@H](c3ccccc3O)O2)cc1 (stereo partly drawn) [compound 7]
PPARgamma activity (summary in words) (Gal4-PPARgammaLBD): higher potency | adipocyte differentiation (summary in words) (MEFs / 3T3-L1): low or no adipocyte differentiation | Adip. (adipocyte differentiation) (MEFs / 3T3-L1): 0

O=C(O)CC/C=C\C[C@@H]1COC2(CCNCC2)O[C@@H]1c1ccccc1O [compound 8]
PPAR (PPARgamma activating activity) (Gal4-PPARgammaLBD): Boc de- rivative Inactive | Adip. (adipocyte differentiation) (MEFs / 3T3-L1): −1

O=C(O)CC/C=C\C[C@@H]1COC(c2cccc3ccccc23)O[C@@H]1c1ccccc1O (stereo partly drawn) [compound 9]
Adip. (adipocyte differentiation) (MEFs / 3T3-L1): 0

O=C(O)CC/C=C\C[C@@H]1COC(c2ccccc2-c2ccccc2)O[C@@H]1c1ccccc1O (stereo partly drawn) [compound 10]
PPARgamma activity (summary in words) (Gal4-PPARgammaLBD): PPARgamma antagonist | PPAR (PPARgamma activating activity) (Gal4-PPARgammaLBD): Antagonist | Adip. (adipocyte differentiation) (MEFs / 3T3-L1): 0

CCCCCC1OC[C@@H](C/C=C\CCC(=O)O)[C@@H](c2ccccc2O)O1 (stereo partly drawn) [compound 11]
Adip. (adipocyte differentiation) (MEFs / 3T3-L1): +1

C/C=C/CC1OC[C@@H](C/C=C\CCC(=O)O)[C@@H](c2ccccc2O)O1 (stereo partly drawn) [compound 12]
Adip. (adipocyte differentiation) (MEFs / 3T3-L1): −1

O=C(O)CC/C=C\C[C@@H]1COC(c2coc3ccc(Cl)cc3c2=O)O[C@@H]1c1ccccc1O (stereo partly drawn) [compound 13]
PPARgamma activity (summary in words) (Gal4-PPARgammaLBD): higher potency | adipocyte differentiation (summary in words) (MEFs / 3T3-L1): low or no adipocyte differentiation | Adip. (adipocyte differentiation) (MEFs / 3T3-L1): −1

COc1ccccc1[C@H]1OC[C@@H](C/C=C\CCC(=O)O)[C@@H](c2ccccc2O)O1 [compound 18]
Adip. (adipocyte differentiation) (MEFs / 3T3-L1): −1

COc1cccc([C@H]2OC[C@@H](C/C=C\CCC(=O)O)[C@@H](c3ccccc3O)O2)c1OC [compound 19]
Adip. (adipocyte differentiation) (MEFs / 3T3-L1): 0

CC(C)[C@H]1OC[C@@H](C/C=C\CCC(=O)O)[C@@H](c2ccccc2O)O1 [compound 20]
Adip. (adipocyte differentiation) (MEFs / 3T3-L1): 0

O=C(O)CC/C=C\C[C@@H]1CO[C@H](C2CCCCC2)O[C@@H]1c1ccccc1O [compound 21]
Adip. (adipocyte differentiation) (MEFs / 3T3-L1): 0

O=C(O)CCC/C=C\C[C@@H]1CO[C@H](c2ccccc2Cl)O[C@@H]1c1ccccc1O [compound 23]
Adip. (adipocyte differentiation) (MEFs / 3T3-L1): +1

COc1ccccc1[C@H]1OC(c2ccccc2Cl)OC[C@H]1C/C=C\CCC(=O)O (stereo partly drawn) [compound 27]
PPAR (PPARgamma activating activity) (Gal4-PPARgammaLBD): Inactive

COc1ccccc1[C@H]1O[C@@H](c2c(Cl)cccc2Cl)OC[C@H]1C/C=C\CCC(=O)O [compound 28]
PPAR (PPARgamma activating activity) (Gal4-PPARgammaLBD): Inactive

O=C(O)CCCCCCC[C@@H]1CO[C@H](c2ccccc2Cl)O[C@@H]1c1ccccc1O [compound 31]
Adip. (adipocyte differentiation) (MEFs / 3T3-L1): 0

CC1(C)OC[C@@H](C/C=C\CCCCC(=O)O)[C@@H](c2ccccc2O)O1 [compound 36]
PPAR (PPARgamma activating activity) (Gal4-PPARgammaLBD): Inactive

COc1ccccc1[C@H]1OC(C)(C)OC[C@H]1C/C=C\CCCCC(=O)O [compound 37]
PPAR (PPARgamma activating activity) (Gal4-PPARgammaLBD): Inactive | Adip. (adipocyte differentiation) (MEFs / 3T3-L1): 0
